The test system of assay [1] is NUGC-3_P53_Luc single clonal cell line (p53 Y220C). In words: Reporter gene assay (p53 RE luciferase). The format is cell-based. To be noted: luciferase reporter, 6 hours, normalized to Ref-1a (10 μM) high control, read-out: p53(Y220C)_NUGC-3 EC50. The method in brief:
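Luminescence normalised to DMSO-only (0%) and 10 μM Ref-1a (100%) wells gives % activity, fitted by 4-parameter logistic or Excel to yield EC50 at 50%. Reporter line: NUGC-3 with p53 response element-luc2P, compound-treated 6 h at 37 °C.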
On the technique in general: A reporter such as luciferase makes a cellular process visible.

The subject of a further assay is NUGC4 (P53 WT). Put plainly: Cell viability assay (CellTiter-Glo, 6 days), NUGC4. The note with it: cell viability, 6 days, CellTiter-Glo, read-out: NUGC4 (P53 WT) IC50. The format is cell-based. A digest of the protocol: (§1)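 After a 6-day compound exposure following overnight plating, ATP luminescence (CellTiter-Glo) gave percent viability relative to DMSO-treated cells and cell-free medium controls. IC50 = concentration at 50% viability, from 4-parameter logistic or Excel fit.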
On the technique in general: Cellular ATP, detected with luciferase, serves as a proxy for viable cell number.

The target in assay [2] is T1, His-p53 Y220C (94-294) protein (Homo sapiens, UniProt P04637, Y220C).
T1 construct: His-p53 Y220C (94-294) protein
Put plainly: In vitro DNA binding assay (HTRF). The format is biochemical. The note with it: % activation normalized to 2 μM Ref-1a high control.

The next assay relates to NUGC3 (P53 Y220C). Put plainly: Cell viability assay (CellTiter-Glo, 6 days), NUGC3. The format is cell-based. To be noted: cell viability, 6 days, CellTiter-Glo, read-out: NUGC3 (P53 Y220C) IC50. The method in brief:
as §1

Read-outs that look alike come from different tables or passages of the source.

As usually defined, the EC50 is the concentration at which the effect is half-maximal. As usually defined, the IC50 is the point on the concentration scale where inhibition reaches its midpoint.

Take `COc1cc(P(C)(C)=O)ccc1NCC#Cc1sc2c(N[C@@H]3CCN(C)C[C@@H]3C)cccc2c1CC(F)(F)F` [Example 126, (4-((3-(7-(((3S,4R)-1,3-dimethylpiperidin-4-yl)amino)-3-(2,2,2-trifluoroethyl)benzo[b]thiophen-2-yl)prop-2-yn-1-yl)amino)-3-methoxyphenyl)dimethylphosphine oxide]: the EC50 in assay [1] (Homo sapiens, NUGC-3, 6 h) was 80 nM; in assay [2] it was 36 nM. In addition, the half-inhibitory concentration (IC50) amounted to 2740 nM in the assay on NUGC4 (P53 WT) (Homo sapiens, NUGC-4, 144 h) and 630 nM in the assay with NUGC3 (P53 Y220C) (Homo sapiens, NUGC-3, 144 h).

Regarding `COc1cc(P(C)(C)=O)ccc1NCC#Cc1sc2c(N[C@H]3CCN(C)C[C@@H]3C)cccc2c1CC(F)(F)F` [Example 127, (4-((3-(7-(((3S,4S)-1,3-dimethylpiperidin-4-yl)amino)-3-(2,2,2-trifluoroethyl)benzo[b]thiophen-2-yl)prop-2-yn-1-yl)amino)-3-methoxyphenyl)dimethylphosphine oxide], the concentration for a half-maximal effect (EC50) in assay [1] (Homo sapiens, NUGC-3, 6 h) stood at 100 nM; in assay [2], 38 nM. Further, the 50% inhibitory concentration (IC50) with NUGC4 (P53 WT) (Homo sapiens, NUGC-4, 144 h) is 2260 nM; with NUGC3 (P53 Y220C) (Homo sapiens, NUGC-3, 144 h), 330 nM.

With `COc1cc(P(C)(C)=O)ccc1NCC#Cc1sc2c(N[C@@H]3CCN(C)C[C@H]3C)cccc2c1CC(F)(F)F` [Example 128, (4-((3-(7-(((3R,4R)-1,3-dimethylpiperidin-4-yl)amino)-3-(2,2,2-trifluoroethyl)benzo[b]thiophen-2-yl)prop-2-yn-1-yl)amino)-3-methoxyphenyl)dimethylphosphine oxide], the EC50 in assay [1] (Homo sapiens, NUGC-3, 6 h) turned out to be 100 nM; in assay [2], 53 nM. The 50% inhibitory concentration (IC50) stood at 2260 nM with NUGC4 (P53 WT) (Homo sapiens, NUGC-4, 144 h) and 870 nM in the assay on NUGC3 (P53 Y220C) (Homo sapiens, NUGC-3, 144 h).

Regarding `COc1cc(P(C)(C)=O)ccc1NCC#Cc1sc2c(NC3C(C)CN(C)CC3C)cccc2c1CC(F)(F)F` (stereo not shown) [Example 131, (3-methoxy-4-((3-(3-(2,2,2-trifluoroethyl)-7-(((Z)-1,3,5-trimethylpiperidin-4-yl)amino)benzo[b]thiophen-2-yl)prop-2-yn-1-yl)amino)phenyl)dimethylphosphine oxide], the 50% effective concentration (EC50) worked out at 70 nM in assay [1] (Homo sapiens, NUGC-3) and 33 nM in assay [2]. The IC50 with NUGC4 (P53 WT) (Homo sapiens, NUGC-4, 144 h) stood at 2540 nM; in the assay with NUGC3 (P53 Y220C) (Homo sapiens, NUGC-3, 144 h) it was 660 nM.

Turning to `COc1cc(P(C)(C)=O)ccc1NCC#Cc1sc2c(NC3C(C)CN(C)CC3C)cccc2c1CC(F)(F)F` (stereo not shown) [Example 132, (3-methoxy-4-((3-(3-(2,2,2-trifluoroethyl)-7-(((E)-1,3,5-trimethylpiperidin-4-yl)amino)benzo[b]thiophen-2-yl)prop-2-yn-1-yl)amino)phenyl)dimethylphosphine oxide], the concentration for a half-maximal effect (EC50) amounted to 260 nM in assay [1] and 59 nM in assay [2]. Further, the IC50 in the assay with NUGC4 (P53 WT) stood at 3080 nM; in the assay with NUGC3 (P53 Y220C), 820 nM.

With `CCN1CC[C@@H](Nc2cccc3c(CC(F)(F)F)c(C#CCNc4ccc(P(C)(C)=O)cc4OC)sc23)[C@@H](F)C1` [Example 135, (4-((3-(7-(((3S,4R)-1-ethyl-3-fluoropiperidin-4-yl)amino)-3-(2,2,2-trifluoroethyl)benzo[b]thiophen-2-yl)prop-2-yn-1-yl)amino)-3-methoxyphenyl)dimethylphosphine oxide], the EC50 came out at 40 nM in assay [1] (Homo sapiens, NUGC-3, 6 h) and 26 nM in assay [2]. Moreover, the 50% inhibitory concentration (IC50) in the assay with NUGC4 (P53 WT) (Homo sapiens, NUGC-4, 144 h) came to 3620 nM; in the assay with NUGC3 (P53 Y220C) (Homo sapiens, NUGC-3, 144 h), 1160 nM.

With `CCN1CC[C@H](Nc2cccc3c(CC(F)(F)F)c(C#CCNc4ccc(P(C)(C)=O)cc4OC)sc23)[C@H](F)C1` [Example 136, (4-((3-(7-(((3R,4S)-1-ethyl-3-fluoropiperidin-4-yl)amino)-3-(2,2,2-trifluoroethyl)benzo[b]thiophen-2-yl)prop-2-yn-1-yl)amino)-3-methoxyphenyl)dimethylphosphine oxide], the EC50 in assay [1] (Homo sapiens, NUGC-3, 6 h) was found to be 240 nM; in assay [2], 46 nM. Besides, the half-maximal inhibitory concentration (IC50) in the assay on NUGC4 (P53 WT) (Homo sapiens, NUGC-4, 144 h) was 4880 nM; in the assay with NUGC3 (P53 Y220C) (Homo sapiens, NUGC-3, 144 h), 1630 nM.

Regarding `CN1CC[C@@H](Nc2cccc3c(CC(F)(F)F)c(C#CCNc4ccc(P(C)(C)=O)cc4OC(F)(F)F)sc23)[C@@H](F)C1` [Example 138, (4-((3-(7-(((3S,4R)-3-fluoro-1-methylpiperidin-4-yl)amino)-3-(2,2,2-trifluoroethyl)benzo[b]thiophen-2-yl)prop-2-yn-1-yl)amino)-3-(trifluoromethoxy)phenyl)dimethylphosphine oxide], the EC50 amounted to 70 nM in assay [1] (Homo sapiens, NUGC-3, 6 h) and 34 nM in assay [2]. For the same compound, the IC50 came to 11100 nM in the assay on NUGC4 (P53 WT) (Homo sapiens, NUGC-4, 144 h) and 880 nM in the assay with NUGC3 (P53 Y220C) (Homo sapiens, NUGC-3, 144 h).

For `COc1cc(P(=O)(C2CC2)C2CC2)ccc1NCC#Cc1sc2c(N[C@@H]3CCN(C)C[C@@H]3F)cccc2c1CC(F)(F)F` [Example 141, dicyclopropyl(4-((3-(7-(((3S,4R)-3-fluoro-1-methylpiperidin-4-yl)amino)-3-(2,2,2-trifluoroethyl)benzo[b]thiophen-2-yl)prop-2-yn-1-yl)amino)-3-methoxyphenyl)phosphine oxide], the half-maximal effective concentration (EC50) in assay [1] (Homo sapiens, NUGC-3, 6 h) was 90 nM; in assay [2], 49 nM. Moreover, the half-inhibitory concentration (IC50) in the assay with NUGC4 (P53 WT) (Homo sapiens, NUGC-4, 144 h) was determined as 9060 nM; in the assay on NUGC3 (P53 Y220C) (Homo sapiens, NUGC-3, 144 h) it was 1130 nM.

As for `COc1cc(P(C)(C)=O)ccc1NCC#Cc1sc2c(NC3CC(C)N(C)C(C)C3)cccc2c1CC(F)(F)F` (stereo not shown) [Example 143, (3-methoxy-4-((3-(3-(2,2,2-trifluoroethyl)-7-((1,2,6-trimethylpiperidin-4-yl)amino)benzo[b]thiophen-2-yl)prop-2-yn-1-yl)amino)phenyl)dimethylphosphine oxide], the half-maximal effective concentration (EC50) in assay [1] (Homo sapiens, NUGC-3) was found to be 450 nM; in assay [2] it was 106 nM. In addition, the IC50 in the assay with NUGC4 (P53 WT) (Homo sapiens, NUGC-4, 144 h) worked out at 6940 nM; in the assay with NUGC3 (P53 Y220C) (Homo sapiens, NUGC-3, 144 h), 1940 nM.

For the compound `COc1cc(P(C)(C)=O)ccc1NCC#Cc1sc2c(N[C@@H]3CCN(C4CCOCC4)C[C@@H]3F)cccc2c1CC(F)(F)F` [Example 147, (4-((3-(7-(((3S,4R)-3-fluoro-1-(tetrahydro-2H-pyran-4-yl)piperidin-4-yl)amino)-3-(2,2,2-trifluoroethyl)benzo[b]thiophen-2-yl)prop-2-yn-1-yl)amino)-3-methoxyphenyl)dimethylphosphine oxide], the EC50 in assay [1] (Homo sapiens, NUGC-3, 6 h) was found to be 110 nM; in assay [2] it was 91 nM. Further, the concentration for half-maximal inhibition (IC50) in the assay on NUGC4 (P53 WT) (Homo sapiens, NUGC-4, 144 h) was 6830 nM; with NUGC3 (P53 Y220C) (Homo sapiens, NUGC-3, 144 h), 1470 nM.

Consider `COc1cc(P(C)(C)=O)ccc1NCC#Cc1sc2c(N[C@H]3CCN(C4CCOCC4)C[C@H]3F)cccc2c1CC(F)(F)F` [Example 148, (4-((3-(7-(((3R,4S)-3-fluoro-1-(tetrahydro-2H-pyran-4-yl)piperidin-4-yl)amino)-3-(2,2,2-trifluoroethyl)benzo[b]thiophen-2-yl)prop-2-yn-1-yl)amino)-3-methoxyphenyl)dimethylphosphine oxide], for which the 50% effective concentration (EC50) in assay [1] (Homo sapiens, NUGC-3, 6 h) was 210 nM; in assay [2] it was 147 nM. In addition, the 50% inhibitory concentration (IC50) with NUGC4 (P53 WT) (Homo sapiens, NUGC-4, 144 h) came to 3080 nM; in the assay on NUGC3 (P53 Y220C) (Homo sapiens, NUGC-3, 144 h), 1560 nM.

As to `COc1cc(P2(=O)CCN(C(=O)C3CC3)CC2)ccc1NCC#Cc1sc2c(N[C@@H]3CCN(C)C[C@@H]3F)cccc2c1CC(F)(F)F` [Example 149, cyclopropyl(4-(4-((3-(7-(((3S,4R)-3-fluoro-1-methylpiperidin-4-yl)amino)-3-(2,2,2-trifluoroethyl)benzo[b]thiophen-2-yl)prop-2-yn-1-yl)amino)-3-methoxyphenyl)-4-oxido-1,4-azaphosphinan-1-yl)methanone], the half-maximal effective concentration (EC50) worked out at 90 nM in assay [1] (Homo sapiens, NUGC-3) and 46 nM in assay [2]. In addition, the IC50 came out at 3700 nM in the assay with NUGC4 (P53 WT) (Homo sapiens, NUGC-4, 144 h) and 370 nM in the assay with NUGC3 (P53 Y220C) (Homo sapiens, NUGC-3, 144 h).

As to `CN1CC[C@@H](Nc2cccc3c(CC(F)(F)F)c(C#CCNc4ccc(P(C)(C)=O)cc4OC4CC4)sc23)[C@@H](F)C1` [Example 150, (3-cyclopropoxy-4-((3-(7-(((3S,4R)-3-fluoro-1-methylpiperidin-4-yl)amino)-3-(2,2,2-trifluoroethyl)benzo[b]thiophen-2-yl)prop-2-yn-1-yl)amino)phenyl)dimethylphosphine oxide], the EC50 in assay [1] (Homo sapiens, NUGC-3) stood at 80 nM; in assay [2], 35 nM. Besides, the IC50 in the assay with NUGC4 (P53 WT) (Homo sapiens, NUGC-4, 144 h) is 9920 nM; with NUGC3 (P53 Y220C) (Homo sapiens, NUGC-3, 144 h) it was 390 nM.

In the case of `CN1CCC(Nc2cccc3c(CC(F)(F)F)c(C#CCNc4ccc(P(C)(C)=O)c5c4OCC5)sc23)C(F)C1` (stereo not shown) [Example 152, (7-((3-(7-(((Z)-3-fluoro-1-methylpiperidin-4-yl)amino)-3-(2,2,2-trifluoroethyl)benzo[b]thiophen-2-yl)prop-2-yn-1-yl)amino)-2,3-dihydrobenzofuran-4-yl)dimethylphosphine oxide], the concentration giving a half-maximal response (EC50) in assay [1] is 120 nM; in assay [2], 19 nM. Further, the results for the IC50 with NUGC4 (P53 WT) and in the assay with NUGC3 (P53 Y220C) were 6690 nM and 1020 nM, respectively.

`COc1nc(P(C)(C)=O)ccc1NCC#Cc1sc2c(N[C@@H]3CCN(C)C[C@@H]3F)cccc2c1CC(F)(F)F` [Example 153, (5-((3-(7-(((3S,4R)-3-fluoro-1-methylpiperidin-4-yl)amino)-3-(2,2,2-trifluoroethyl)benzo[b]thiophen-2-yl)prop-2-yn-1-yl)amino)-6-methoxypyridin-2-yl)dimethylphosphine oxide]: the EC50 in assay [1] (Homo sapiens, NUGC-3) was determined as 100 nM; in assay [2], 31 nM. In addition, the 50% inhibitory concentration (IC50) in the assay on NUGC4 (P53 WT) (Homo sapiens, NUGC-4, 144 h) worked out at 4070 nM; in the assay on NUGC3 (P53 Y220C) (Homo sapiens, NUGC-3, 144 h) it was 370 nM.

The values above are taken from patent US20240400591A1 (Jacobio Pharmaceuticals Co., Ltd., priority 2021, published 2024).
